Laboratory results as given in PubChem BioAssay (NCI).
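In this assay, cells in 96-well plates receive the compound at five concentrations for 48 hours. Endpoints are linearly interpolated between the surrounding concentrations. GI50 is the concentration that inhibits growth by half. TGI marks complete inhibition of growth.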

Columns and labels:
Test in all cases: inhibition of tumour cell growth, NCI panel, 48 h
HL-60(TB) leukemia = test system: HL-60(TB) leukemia
786-0 renal = test system: 786-0 renal
NCI-H460 lung = test system: NCI-H460 lung
OVCAR-5 ovarian = test system: OVCAR-5 ovarian
CAKI-1 renal = test system: CAKI-1 renal
HCT-15 colon = test system: HCT-15 colon
EKVX NSCLC = test system: EKVX NSCLC
NCI-H23 lung = test system: NCI-H23 lung
NCI-H226 lung = test system: NCI-H226 lung
M14 melanoma = test system: M14 melanoma
RPMI-8226 leukemia = test system: RPMI-8226 leukemia
A549 NSCLC = test system: A549 NSCLC
HCT-116 colon = test system: HCT-116 colon
SK-MEL-5 melanoma = test system: SK-MEL-5 melanoma
SK-MEL-28 melanoma = test system: SK-MEL-28 melanoma
MDA-MB-435 = test system: MDA-MB-435
SR leukemia = test system: SR leukemia
NCI/ADR-RES ovarian = test system: NCI/ADR-RES ovarian
DU-145 prostate = test system: DU-145 prostate
SK-MEL-2 melanoma = test system: SK-MEL-2 melanoma
ACHN renal = test system: ACHN renal
SK-OV-3 ovarian = test system: SK-OV-3 ovarian
U251 CNS = test system: U251 CNS
HCC-2998 colon = test system: HCC-2998 colon
K-562 leukemia = test system: K-562 leukemia
BT-549 breast = test system: BT-549 breast
LOX IMVI melanoma = test system: LOX IMVI melanoma
MOLT-4 leukemia = test system: MOLT-4 leukemia
OVCAR-3 ovarian = test system: OVCAR-3 ovarian
HOP-92 NSCLC = test system: HOP-92 NSCLC
UO-31 renal = test system: UO-31 renal
UACC-62 melanoma = test system: UACC-62 melanoma
MDA-MB-231 breast = test system: MDA-MB-231 breast
OVCAR-8 ovarian = test system: OVCAR-8 ovarian
HOP-62 NSCLC = test system: HOP-62 NSCLC
SF-539 CNS = test system: SF-539 CNS
T-47D breast = test system: T-47D breast
HS 578T breast = test system: HS 578T breast
SF-295 CNS = test system: SF-295 CNS
RXF 393 renal = test system: RXF 393 renal
COLO 205 colon = test system: COLO 205 colon
NCI-H522 lung = test system: NCI-H522 lung
KM12 colon = test system: KM12 colon
SNB-19 CNS = test system: SNB-19 CNS
MCF7 breast = test system: MCF7 breast
SN12C renal = test system: SN12C renal
MALME-3M melanoma = test system: MALME-3M melanoma
SNB-75 CNS = test system: SNB-75 CNS
HT29 colon = test system: HT29 colon
IGROV1 ovarian = test system: IGROV1 ovarian
SW-620 colon = test system: SW-620 colon
PC-3 prostate = test system: PC-3 prostate
SF-268 CNS = test system: SF-268 CNS
A498 renal = test system: A498 renal
OVCAR-4 ovarian = test system: OVCAR-4 ovarian
TK-10 renal = test system: TK-10 renal
UACC-257 melanoma = test system: UACC-257 melanoma
CCRF-CEM leukemia = test system: CCRF-CEM leukemia

## Nc1ncc(-c2cccc(S(N)(=O)=O)c2)c2scc(-c3ccc(F)c(Cl)c3)c12
HL-60(TB) leukemia
  GI50: 4.76 µM
  TGI: 11.7 µM
786-0 renal
  GI50: 6.02 µM
  TGI: 17 µM
NCI-H460 lung
  GI50: 3.8 µM
  TGI: 8.08 µM
OVCAR-5 ovarian
  GI50: 9.09 µM
  TGI: > 22.2 µM
CAKI-1 renal
  GI50: 5.51 µM
  TGI: 21.4 µM
HCT-15 colon
  GI50: 6.59 µM
  TGI: > 25 µM
EKVX NSCLC
  GI50: 7.75 µM
  TGI: > 24.2 µM
NCI-H23 lung
  GI50: 7.05 µM
  TGI: > 21 µM
NCI-H226 lung
  GI50: 5.71 µM
  TGI: 15.1 µM
M14 melanoma
  GI50: 7.54 µM
  TGI: 16.8 µM
RPMI-8226 leukemia
  GI50: 4.92 µM
  TGI: 14.9 µM
A549 NSCLC
  GI50: 6.76 µM
  TGI: > 25 µM
HCT-116 colon
  GI50: 4.34 µM
  TGI: 8.29 µM
SK-MEL-5 melanoma
  GI50: 4 µM
  TGI: 7.46 µM
SK-MEL-28 melanoma
  GI50: 8.8 µM
  TGI: > 23.3 µM
MDA-MB-435
  GI50: 4.68 µM
  TGI: 10.1 µM
SR leukemia
  GI50: 7.12 µM
  TGI: > 15.9 µM
NCI/ADR-RES ovarian
  GI50: 7.14 µM
  TGI: > 25 µM
DU-145 prostate
  GI50: 5.55 µM
  TGI: 15.3 µM
SK-MEL-2 melanoma
  GI50: 5.88 µM
  TGI: 10.9 µM
ACHN renal
  GI50: 6.36 µM
  TGI: > 25 µM
SK-OV-3 ovarian
  GI50: 5.14 µM
  TGI: > 17.6 µM
U251 CNS
  GI50: 6.77 µM
  TGI: > 17.5 µM
HCC-2998 colon
  GI50: 6.7 µM
  TGI: 13.3 µM
K-562 leukemia
  GI50: 0.705 µM
  TGI: > 11.7 µM
BT-549 breast
  GI50: 7.69 µM
  TGI: 15.1 µM
LOX IMVI melanoma
  GI50: 4.84 µM
  TGI: 9.67 µM
MOLT-4 leukemia
  GI50: 5.35 µM
  TGI: > 19.2 µM
OVCAR-3 ovarian
  GI50: 5.42 µM
  TGI: 12.5 µM
HOP-92 NSCLC
  GI50: 5.14 µM
  TGI: 18.4 µM
UO-31 renal
  GI50: 2.22 µM
  TGI: 21 µM
UACC-62 melanoma
  GI50: 5.17 µM
  TGI: 11.7 µM
MDA-MB-231 breast
  GI50: 5.94 µM
  TGI: > 25 µM
OVCAR-8 ovarian
  GI50: 6.38 µM
  TGI: > 22.6 µM
HOP-62 NSCLC
  GI50: 5.47 µM
  TGI: 12.6 µM
SF-539 CNS
  GI50: 5.27 µM
  TGI: 13.2 µM
T-47D breast
  GI50: 3.59 µM
  TGI: 11 µM
HS 578T breast
  GI50: 7.23 µM
  TGI: 22 µM
SF-295 CNS
  GI50: 5.66 µM
  TGI: 13.8 µM
RXF 393 renal
  GI50: 3.79 µM
  TGI: 9.43 µM
COLO 205 colon
  GI50: 5.92 µM
  TGI: 11.8 µM
NCI-H522 lung
  GI50: 3.74 µM
  TGI: 7.74 µM
KM12 colon
  GI50: 5.56 µM
  TGI: 14.7 µM
SNB-19 CNS
  GI50: 10.6 µM
  TGI: > 25 µM
MCF7 breast
  GI50: 5.93 µM
  TGI: 15.9 µM
SN12C renal
  GI50: 5.74 µM
  TGI: > 23.2 µM
MALME-3M melanoma
  GI50: 6.94 µM
  TGI: 16.6 µM
SNB-75 CNS
  GI50: 6.11 µM
  TGI: > 23 µM
HT29 colon
  GI50: 5 µM
  TGI: 15.3 µM
IGROV1 ovarian
  GI50: 6.58 µM
  TGI: 22.3 µM
SW-620 colon
  GI50: 6.21 µM
  TGI: 14.3 µM
PC-3 prostate
  GI50: 6.83 µM
  TGI: > 20.6 µM
SF-268 CNS
  GI50: 5.93 µM
  TGI: > 25 µM
A498 renal
  GI50: 5.73 µM
  TGI: 15.4 µM
OVCAR-4 ovarian
  GI50: 6.65 µM
  TGI: > 23.7 µM
TK-10 renal
  GI50: 6.58 µM
  TGI: 16.4 µM
UACC-257 melanoma
  GI50: 6.46 µM
  TGI: 17.2 µM
CCRF-CEM leukemia
  GI50: 6.12 µM
  TGI: > 22.2 µM

## C=CC(COC(c1ccccc1)(c1ccccc1)c1ccccc1)N(CC)CC (configuration not stated)
HL-60(TB) leukemia
  GI50: 3.68 µM
  TGI: 16.2 µM
786-0 renal
  GI50: 11.4 µM
  TGI: 27.7 µM
NCI-H460 lung
  GI50: 2.5 µM
  TGI: 6.58 µM
OVCAR-5 ovarian
  GI50: 6.66 µM
  TGI: 22.1 µM
CAKI-1 renal
  GI50: 2.43 µM
  TGI: 11.8 µM
HCT-15 colon
  GI50: 2.6 µM
  TGI: 13.9 µM
EKVX NSCLC
  GI50: 4.48 µM
  TGI: 19.2 µM
NCI-H23 lung
  GI50: 6.07 µM
  TGI: 19.9 µM
NCI-H226 lung
  GI50: 11.9 µM
  TGI: 30.9 µM
M14 melanoma
  GI50: 2.53 µM
  TGI: 6.19 µM
RPMI-8226 leukemia
  GI50: 2.99 µM
  TGI: 7.8 µM
A549 NSCLC
  GI50: 5.16 µM
  TGI: 18.4 µM
HCT-116 colon
  GI50: 3.43 µM
  TGI: 14.3 µM
SK-MEL-5 melanoma
  GI50: 1.95 µM
  TGI: 3.98 µM
SK-MEL-28 melanoma
  GI50: 3.59 µM
  TGI: 11.8 µM
MDA-MB-435
  GI50: 4.04 µM
  TGI: 16.3 µM
SR leukemia
  GI50: 2.13 µM
  TGI: 5.29 µM
NCI/ADR-RES ovarian
  GI50: 3.88 µM
  TGI: 18.2 µM
DU-145 prostate
  GI50: 6.54 µM
  TGI: 20.2 µM
SK-MEL-2 melanoma
  GI50: 4.68 µM
  TGI: 13.9 µM
ACHN renal
  GI50: 8.1 µM
  TGI: 23.9 µM
SK-OV-3 ovarian
  GI50: 8.12 µM
  TGI: 21.4 µM
U251 CNS
  GI50: 2.98 µM
  TGI: 12 µM
HCC-2998 colon
  GI50: 4.28 µM
  TGI: 16.4 µM
K-562 leukemia
  GI50: 2.07 µM
  TGI: 5.86 µM
BT-549 breast
  GI50: 14.7 µM
  TGI: 30.3 µM
LOX IMVI melanoma
  GI50: 4.73 µM
  TGI: 18.8 µM
MOLT-4 leukemia
  GI50: 3.02 µM
  TGI: 11.6 µM
OVCAR-3 ovarian
  GI50: 7.04 µM
  TGI: 20.3 µM
HOP-92 NSCLC
  GI50: 4.5 µM
  TGI: 18 µM
UO-31 renal
  GI50: 3.54 µM
  TGI: 16.4 µM
UACC-62 melanoma
  GI50: 3.61 µM
  TGI: 12.5 µM
MDA-MB-231 breast
  GI50: 3.35 µM
  TGI: 13.5 µM
OVCAR-8 ovarian
  GI50: 5.87 µM
  TGI: 20.1 µM
HOP-62 NSCLC
  GI50: 3.93 µM
  TGI: 15.6 µM
SF-539 CNS
  GI50: 4.88 µM
  TGI: 18.6 µM
T-47D breast
  GI50: 4.6 µM
  TGI: 19.8 µM
HS 578T breast
  GI50: 2.21 µM
  TGI: 9.86 µM
SF-295 CNS
  GI50: 1.74 µM
  TGI: 3.78 µM
RXF 393 renal
  GI50: 2.92 µM
  TGI: 8.21 µM
COLO 205 colon
  GI50: 1.7 µM
  TGI: 3.4 µM
NCI-H522 lung
  GI50: 4.18 µM
  TGI: 15.2 µM
KM12 colon
  GI50: 4.33 µM
  TGI: 14.8 µM
SNB-19 CNS
  GI50: 10.1 µM
  TGI: 25.3 µM
MCF7 breast
  GI50: 2.8 µM
  TGI: 7.21 µM
SN12C renal
  GI50: 7.97 µM
  TGI: 24.5 µM
MALME-3M melanoma
  GI50: 1.89 µM
  TGI: 4.3 µM
SNB-75 CNS
  GI50: 10.3 µM
  TGI: 22.5 µM
HT29 colon
  GI50: 1.93 µM
  TGI: 7.05 µM
IGROV1 ovarian
  GI50: 5.09 µM
  TGI: 20.1 µM
SW-620 colon
  GI50: 2.32 µM
  TGI: 7.95 µM
PC-3 prostate
  GI50: 4.02 µM
  TGI: 15.6 µM
SF-268 CNS
  GI50: 11 µM
  TGI: 24.9 µM
A498 renal
  GI50: 8.25 µM
  TGI: 23.5 µM
OVCAR-4 ovarian
  GI50: 4.74 µM
  TGI: 17.5 µM
TK-10 renal
  GI50: 3.19 µM
  TGI: 10.8 µM
UACC-257 melanoma
  GI50: 2.27 µM
  TGI: 6.32 µM
CCRF-CEM leukemia
  GI50: 3.76 µM
  TGI: 14.8 µM
